{
  "source": "patent US11345912B2",
  "about": "“Directed evolution of multivalent glycopeptides that tightly bind to target proteins” (Brandeis University, priority 2013, dated 2022)",
  "test_system": "2G12",
  "experiment": "Binding curve and KD determination of 2G12-glycopeptide interaction (radiolabeled glycopeptide, protein G magnetic bead capture, scintillation counting)",
  "conditions": "Table 4, error = standard error of fit; for Fmax [%]: maximal fraction bound from curve fit; for Kd: ribosomally translated radiolabeled glycopeptide with His6/FLAG tag, room temperature, fit Fbound=(Fmax[2G12])/(KD+[2G12])",
  "summary_of_the_method": "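Radiolabeled glycopeptide (<4 pmol) from PURE-system translation with click glycosylation was incubated with 100 nM 2G12 at room temperature. Complexes were captured on protein G beads and eluted at 70° C. Bound and unbound fractions were counted by scintillation, run at least in triplicate, and KD derived from binding curves.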",
  "data": [
    {"compound": "CC[C@H](C)[C@H](NC(=O)[C@H](CCCNC(=N)N)NC(=O)[C@@H]1CCCN1C(=O)[C@H](CC(=O)O)NC(=O)[C@H](CCC(=O)O)NC(=O)[C@@H](NC(=O)[C@H](C)NC(=O)[C@H](Cc1ccc(O)cc1)NC(=O)[C@H](CCC(N)=O)NC(=O)[C@H](CCc1cn(C2CCC(OC3O[C@H](CO[C@H]4O[C@H](CO[C@H]5O[C@H](CO)[C@@H](O)[C@H](O)[C@@H]5O[C@H]5O[C@H](CO)[C@@H](O)[C@H](O)[C@@H]5O)[C@@H](O)[C@H](O[C@H]5O[C@H](CO)[C@@H](O)[C@H](O)[C@@H]5O[C@H]5O[C@H](CO)[C@@H](O)[C@H](O)[C@@H]5O)[C@@H]4O)[C@@H](O)[C@H](O[C@H]4O[C@H](CO)[C@@H](O)[C@H](O)[C@@H]4O[C@H]4O[C@H](CO)[C@@H](O)[C@H](O)[C@@H]4O[C@H]4O[C@H](CO)[C@@H](O)[C@H](O)[C@@H]4O)[C@@H]3O)CC2)nn1)NC(=O)[C@H](CCCNC(=N)N)NC(=O)[C@H](Cc1ccc(O)cc1)NC(=O)[C@H](CCC(=O)O)NC(=O)[C@H](CC(C)C)NC(=O)[C@H](CO)NC(=O)[C@H](CC(N)=O)NC(=O)[C@H](CC(C)C)NC(=O)[C@@H](NC(=O)[C@H](CO)NC(=O)[C@H](CCCNC(=N)N)NC(=O)[C@H](CCc1cn(C2CCC(OC3O[C@H](CO[C@H]4O[C@H](CO[C@H]5O[C@H](CO)[C@@H](O)[C@H](O)[C@@H]5O[C@H]5O[C@H](CO)[C@@H](O)[C@H](O)[C@@H]5O)[C@@H](O)[C@H](O[C@H]5O[C@H](CO)[C@@H](O)[C@H](O)[C@@H]5O[C@H]5O[C@H](CO)[C@@H](O)[C@H](O)[C@@H]5O)[C@@H]4O)[C@@H](O)[C@H](O[C@H]4O[C@H](CO)[C@@H](O)[C@H](O)[C@@H]4O[C@H]4O[C@H](CO)[C@@H](O)[C@H](O)[C@@H]4O[C@H]4O[C@H](CO)[C@@H](O)[C@H](O)[C@@H]4O)[C@@H]3O)CC2)nn1)NC=O)[C@@H](C)O)[C@@H](C)O)C(=O)N[C@@H](CCCNC(=N)N)C(=O)N[C@@H](CCc1cn(C2CCC(OC3O[C@H](CO[C@H]4O[C@H](CO[C@H]5O[C@H](CO)[C@@H](O)[C@H](O)[C@@H]5O[C@H]5O[C@H](CO)[C@@H](O)[C@H](O)[C@@H]5O)[C@@H](O)[C@H](O[C@H]5O[C@H](CO)[C@@H](O)[C@H](O)[C@@H]5O[C@H]5O[C@H](CO)[C@@H](O)[C@H](O)[C@@H]5O)[C@@H]4O)[C@@H](O)[C@H](O[C@H]4O[C@H](CO)[C@@H](O)[C@H](O)[C@@H]4O[C@H]4O[C@H](CO)[C@@H](O)[C@H](O)[C@@H]4O[C@H]4O[C@H](CO)[C@@H](O)[C@H](O)[C@@H]4O)[C@@H]3O)CC2)nn1)C(=O)N[C@@H](C)C(=O)N[C@@H](CO)C(=O)N[C@H](C(=O)N1CCC[C@H]1C(=O)N[C@@H](Cc1ccc(O)cc1)C(=O)N[C@H](C(=O)N[C@@H](Cc1ccc(O)cc1)C(=O)N[C@@H](Cc1c[nH]c2ccccc12)C(=O)N[C@@H](Cc1c[nH]c2ccccc12)C(=O)N1CCC[C@H]1C(=O)NCC(=O)N[C@@H](CO)C(=O)NCC(=O)N[C@@H](CO)C(=O)N[C@@H](CC(C)C)C(=O)NCC(=O)N[C@@H](Cc1c[nH]cn1)C(=O)N[C@@H](Cc1c[nH]cn1)C(=O)N[C@@H](Cc1c[nH]cn1)C(=O)N[C@@H](Cc1c[nH]cn1)C(=O)N[C@@H](Cc1c[nH]cn1)C(=O)N[C@@H](Cc1c[nH]cn1)C(=O)N[C@@H](CCCNC(=N)N)C(=O)N[C@@H](CC(=O)O)C(=O)N[C@@H](Cc1ccc(O)cc1)C(=O)N[C@@H](CCCCN)C(=O)N[C@@H](CC(=O)O)C(=O)N[C@@H](CC(=O)O)C(=O)N[C@@H](CC(=O)O)C(=O)N[C@@H](CC(=O)O)C(=O)N[C@@H](CCCCN)C(=O)O)[C@@H](C)O)[C@@H](C)CC", "note": "(stereo partly shown) [Clone 10F9, XRSTLNSLEYRXQYATEDPRIRXASIPYTYWWP]", "values": [
      {"measurement": "Fmax [%]", "value": "86 ± 1.2", "unit": "%"},
      {"measurement": "Kd", "value": "3.1 ± 0.17", "unit": "nM"}
    ]},
    {"compound": "CC[C@H](C)[C@H](NC(=O)[C@@H](NC(=O)[C@@H](NC(=O)[C@H](Cc1c[nH]cn1)NC(=O)[C@H](CC(N)=O)NC(=O)[C@H](CC(=O)O)NC(=O)[C@H](CCc1cn(C2CCC(OC3O[C@H](CO[C@H]4O[C@H](CO[C@H]5O[C@H](CO)[C@@H](O)[C@H](O)[C@@H]5O[C@H]5O[C@H](CO)[C@@H](O)[C@H](O)[C@@H]5O)[C@@H](O)[C@H](O[C@H]5O[C@H](CO)[C@@H](O)[C@H](O)[C@@H]5O[C@H]5O[C@H](CO)[C@@H](O)[C@H](O)[C@@H]5O)[C@@H]4O)[C@@H](O)[C@H](O[C@H]4O[C@H](CO)[C@@H](O)[C@H](O)[C@@H]4O[C@H]4O[C@H](CO)[C@@H](O)[C@H](O)[C@@H]4O[C@H]4O[C@H](CO)[C@@H](O)[C@H](O)[C@@H]4O)[C@@H]3O)CC2)nn1)NC(=O)[C@@H](NC(=O)[C@H](CCCCN)NC(=O)[C@H](CCC(=O)O)NC(=O)[C@H](CCCNC(=N)N)NC(=O)[C@H](CCCCN)NC(=O)[C@H](CS)NC(=O)[C@H](CC(N)=O)NC(=O)[C@@H](NC(=O)[C@H](CCCCN)NC(=O)[C@@H](NC(=O)[C@H](C)NC(=O)[C@H](CCc1cn(C2CCC(OC3O[C@H](CO[C@H]4O[C@H](CO[C@H]5O[C@H](CO)[C@@H](O)[C@H](O)[C@@H]5O[C@H]5O[C@H](CO)[C@@H](O)[C@H](O)[C@@H]5O)[C@@H](O)[C@H](O[C@H]5O[C@H](CO)[C@@H](O)[C@H](O)[C@@H]5O[C@H]5O[C@H](CO)[C@@H](O)[C@H](O)[C@@H]5O)[C@@H]4O)[C@@H](O)[C@H](O[C@H]4O[C@H](CO)[C@@H](O)[C@H](O)[C@@H]4O[C@H]4O[C@H](CO)[C@@H](O)[C@H](O)[C@@H]4O[C@H]4O[C@H](CO)[C@@H](O)[C@H](O)[C@@H]4O)[C@@H]3O)CC2)nn1)NC=O)[C@@H](C)O)[C@@H](C)O)[C@@H](C)O)C(C)C)[C@@H](C)O)C(=O)N[C@@H](CCc1cn(C2CCC(OC3O[C@H](CO[C@H]4O[C@H](CO[C@H]5O[C@H](CO)[C@@H](O)[C@H](O)[C@@H]5O[C@H]5O[C@H](CO)[C@@H](O)[C@H](O)[C@@H]5O)[C@@H](O)[C@H](O[C@H]5O[C@H](CO)[C@@H](O)[C@H](O)[C@@H]5O[C@H]5O[C@H](CO)[C@@H](O)[C@H](O)[C@@H]5O)[C@@H]4O)[C@@H](O)[C@H](O[C@H]4O[C@H](CO)[C@@H](O)[C@H](O)[C@@H]4O[C@H]4O[C@H](CO)[C@@H](O)[C@H](O)[C@@H]4O[C@H]4O[C@H](CO)[C@@H](O)[C@H](O)[C@@H]4O)[C@@H]3O)CC2)nn1)C(=O)N[C@@H](CCCNC(=N)N)C(=O)N[C@@H](CO)C(=O)N[C@H](C(=O)N1CCC[C@H]1C(=O)N[C@@H](Cc1c[nH]c2ccccc12)C(=O)N[C@@H](Cc1ccc(O)cc1)C(=O)N[C@H](C(=O)N[C@@H](Cc1ccc(O)cc1)C(=O)N[C@@H](CCCNC(=N)N)C(=O)N[C@@H](Cc1c[nH]c2ccccc12)C(=O)N[C@@H](CC(C)C)C(=O)N1CCC[C@H]1C(=O)N[C@@H](CC(N)=O)C(=O)NCC(=O)N[C@@H](CO)C(=O)NCC(=O)N[C@@H](CO)C(=O)N[C@@H](CC(C)C)C(=O)NCC(=O)N[C@@H](Cc1c[nH]cn1)C(=O)N[C@@H](Cc1c[nH]cn1)C(=O)N[C@@H](Cc1c[nH]cn1)C(=O)N[C@@H](Cc1c[nH]cn1)C(=O)N[C@@H](Cc1c[nH]cn1)C(=O)N[C@@H](Cc1c[nH]cn1)C(=O)N[C@@H](CCCNC(=N)N)C(=O)N[C@@H](CC(=O)O)C(=O)N[C@@H](Cc1ccc(O)cc1)C(=O)N[C@@H](CCCCN)C(=O)N[C@@H](CC(=O)O)C(=O)N[C@@H](CC(=O)O)C(=O)N[C@@H](CC(=O)O)C(=O)N[C@@H](CC(=O)O)C(=O)N[C@@H](CCCCN)C(=O)O)[C@@H](C)O)[C@@H](C)CC", "note": "(stereo partly shown) [Clone 10V1, XATKTNCKREKTXDNHVTIXRSIPWYTYRWLPN]", "values": [
      {"measurement": "Fmax [%]", "value": "97 ± 2.1", "unit": "%"},
      {"measurement": "Kd", "value": "1.9 ± 0.17", "unit": "nM"}
    ]}
  ]
}
